The target of test [1] is human purified recombinant IRAK1 (His-TEV-IRAK1 (194-712)) (Homo sapiens (Human), UniProt P51617). Description: IRAK1 enzymatic assay (ADP-Glo luminescence). The note with it: ATP 1 μM, 2 h at RT. It counts as biochemical. The procedure: IRAK1 is a human purified recombinant enzyme (His-TEV-IRAK1 (194-712))
In this assay, IRAK1 hydrolyses ATP and autophosphorylates. Measurement of IRAK-1 inhibition is performed in 384-well format based on luminescence assay (ADP-Glo™ Kinase Assay from Promega). Purified human recombinant IRAK1 (0.3 μg/ml) and serial diluted compounds in DMSO (range of concentration from 10 μM to 0.5 nM) or controls (1% DMSO) are incubated for 15 minutes at RT in assay buffer containing 50 mM Hepes pH 7.0, Fatty acid-free BSA 0.1%, Dithiothreitol (DTT) 2 mM, MgCl2 10 mM, EGTA 0.5 mM, Triton X-100 0.01%. The kinase reaction is then initiated by the addition of ATP at a concentration of 1 μM. After 2 hours of incubation at RT, the reaction is stopped and the unconsumed ATP depleted by the addition of ADP-Glo™ Reagent according to supplier instructions. After 40 minutes of incubation at RT, the Kinase Detection Reagent is then added to the assay plate according to supplier instructions. After 20 minutes of incubation at RT, the luminescence signal is measured with a luminometer (PerkinElmer Envision or equivalent reader).
(In general: ADP-Glo first removes unused ATP, then detects ADP through luciferase.)

Test [2] deals with human purified recombinant IRAK4 (His-TEV-IRAK4 (1-460)) (Homo sapiens (Human), UniProt Q9NWZ3). Description: IRAK4 enzymatic assay (ADP-Glo luminescence). It counts as biochemical. Conditions: ATP 2 μM, STK1-biotin peptide 300 nM, 2 h at RT. The procedure: IRAK4 is a human purified recombinant enzyme (His-TEV-IRAK4 (1-460)).
In this assay, IRAK4 hydrolyses ATP, autophosphorylates and phosphorylates a Serine/Threonine generic peptidic substrate (STK: 61ST1BLC from CisBio International). Measurement of IRAK-4 inhibition is performed in 384-well format based on a luminescence assay (ADP-Glo™ Kinase Assay from Promega). Purified human recombinant IRAK4 (0.3 μg/ml) and serial diluted compounds in DMSO (range of concentration from 10 μM to 0.5 nM) or controls (1% DMSO) are incubated for 15 minutes at RT in assay buffer containing 50 mM Hepes pH 7.0, Fatty acid-free BSA 0.1%, Dithiothreitol (DTT) 2 mM, MgCl2 10 mM, EGTA 0.5 mM, Triton X-100 0.01%, MnCl2 5 mM. The kinase reaction is then initiated by the addition of ATP (2 μM) and the peptidic substrate STK1-biotin peptide (300 nM). After 2 hours of incubation at RT, the reaction is stopped and the unconsumed ATP depleted by the addition of ADP-Glo™ Reagent according to supplier instructions. After 40 minutes of incubation at RT, the Kinase Detection Reagent is then added to the assay plate according to supplier instructions. After 20 minutes of incubation at RT, the luminescence signal is measured with a plate-reading luminometer (PerkinElmer Envision or equivalent reader).

human purified recombinant IRAK1 (His-TEV-IRAK1 (194-712)), sequence (P51617 194-712): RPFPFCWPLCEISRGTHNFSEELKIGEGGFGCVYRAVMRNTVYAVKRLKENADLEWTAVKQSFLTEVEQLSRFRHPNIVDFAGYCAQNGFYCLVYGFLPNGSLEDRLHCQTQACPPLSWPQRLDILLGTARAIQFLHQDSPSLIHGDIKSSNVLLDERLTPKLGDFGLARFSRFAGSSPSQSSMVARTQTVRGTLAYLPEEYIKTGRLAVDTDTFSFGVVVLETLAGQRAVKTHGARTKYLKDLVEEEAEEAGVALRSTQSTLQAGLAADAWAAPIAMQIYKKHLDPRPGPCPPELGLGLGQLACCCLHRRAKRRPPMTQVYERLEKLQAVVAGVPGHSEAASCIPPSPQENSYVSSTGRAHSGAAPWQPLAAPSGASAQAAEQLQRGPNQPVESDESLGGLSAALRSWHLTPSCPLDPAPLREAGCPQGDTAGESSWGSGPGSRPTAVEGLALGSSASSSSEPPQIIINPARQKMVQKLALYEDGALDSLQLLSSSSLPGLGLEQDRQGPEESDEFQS
human purified recombinant IRAK4 (His-TEV-IRAK4 (1-460)), sequence (Q9NWZ3 whole entry): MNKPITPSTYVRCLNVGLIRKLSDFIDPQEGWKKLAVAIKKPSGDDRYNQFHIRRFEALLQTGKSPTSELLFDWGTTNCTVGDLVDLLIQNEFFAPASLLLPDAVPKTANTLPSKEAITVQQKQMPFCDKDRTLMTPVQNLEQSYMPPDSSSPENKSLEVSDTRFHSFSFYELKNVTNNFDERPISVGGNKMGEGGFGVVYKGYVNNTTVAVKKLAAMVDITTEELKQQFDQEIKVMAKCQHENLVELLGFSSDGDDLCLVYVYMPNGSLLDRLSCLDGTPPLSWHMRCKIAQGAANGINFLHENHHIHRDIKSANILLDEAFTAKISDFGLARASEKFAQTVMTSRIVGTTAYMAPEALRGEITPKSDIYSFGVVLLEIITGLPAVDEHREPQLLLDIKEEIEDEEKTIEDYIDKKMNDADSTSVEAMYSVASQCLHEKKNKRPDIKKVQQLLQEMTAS

Regarding `O=C1Nc2cn(C3CCOCC3)nc2C(=O)NCCCOc2ccc(=O)n(n2)Cc2cccc1c2` [Compound 6, 12-(oxan-4-yl)-20-oxa-1,9,12,13,16,25-hexaazatetracyclo[19.3.1.1^3,7.0^10,14]hexacosa-3,5,7(26),10,13,21(25),22-heptaene-8,15,24-trione], the concentration for half-maximal inhibition (IC50) (usually the point on the concentration scale where inhibition reaches its midpoint) in test [1] was 100 to 1000 nM; in test [2], under 100 nM. Taken in the same sequence, the figures for `Cn1cc2c(n1)C(=O)NCCc1cccc(c1)-c1ccc(=O)n(n1)Cc1cccc(c1)C(=O)N2` [Compound 14, 17-methyl-6,14,17,18,21,30-hexaazapentacyclo[22.3.1.1^2,6.1^8,12.0^15,19]triaconta-1(28),2(30),3,8,10,12(29),15,18,24,26-decaene-5,13,20-trione] were 100 to 1000 nM and under 100 nM. In the same order, the values of `Cn1cc2c(n1)C(=O)NCCCOc1ccc(=O)n(n1)Cc1cccc(c1)C(=O)N2` [Compound 1, 12-methyl-20-oxa-1,9,12,13,16,25-hexaazatetracyclo[19.3.1.1^3,70^10,14]hexacosa-3,5,7(26),10,13,21(25),22-heptaene-8,15,24-trione] are 100 to 1000 nM and under 100 nM. With `CC(C)(C)n1cc2c(n1)C(=O)NCCCOc1ccc(=O)n(n1)Cc1cccc(n1)C(=O)N2` [Compound 10, 12-tert-butyl-20-oxa-1,9,12,13,16,25,26-heptaazatetracyclo[19.3.1.1^3,7.0^10,14]hexacosa-3,5,7(26),10,13,21(25),22-heptaene-8,15,24-trione], the IC50 in test [2] was 1000 to 5000 nM.

Turning to `Cc1cc2n(n1)CCc1cccc(c1)-c1ccc(=O)n(n1)Cc1cccc(c1)C(=O)N2` [Compound 15, 17-methyl-6,14,18,19,28-pentaazapentacyclo[20.3.1.1^2,6.1^8,12.0^15,19]octacosa-1(26),2(28),3,8,10,12(27)15,17,22,24-decaene-5,13-dione], the half-maximal inhibitory concentration (IC50) in test [1] and in test [2] was over 5000 nM in each case. As for `CC(C)(C)n1cc2c(n1)C(=O)NCCCOc1ccc(=O)n(n1)Cc1cccc(c1)C(=O)N2` [Compound 7, 12-tert-butyl-20-oxa-1,9,12,13,16,25-hexaazatetracyclo[19.3.1.1^3,7.0^10,14]hexacosa-3,5,7(26),10,13,21(25),22-heptaene-8,15,24-trione], the half-inhibitory concentration (IC50) in test [1] was 100 to 1000 nM; in test [2] it was under 100 nM. Taken in the same sequence, the figures for `Cn1cc2c(n1)C(=O)NCCOc1ccc(=O)n(n1)Cc1cccc(c1)C(=O)N2` [Compound 4, 12-methyl-19-oxa-1,9,12,13,16,24-hexaazatetracyclo[18.3.1.1^3,7.0^10,14]pentacosa-3,5,7(25),10,13,20(24),21-heptaene-8,15,23-trione] were over 5000 nM and over 5000 nM.

Turning to `O=C1Nc2cn(C3CCOCC3)nc2C(=O)NCCCOc2ccc(=O)n(n2)Cc2cccc1n2` [Compound 9, 12-(oxan-4-yl)-20-oxa-1,9,12,13,16,25,26-heptaazatetracyclo[19.3.1.1^3,7.0^10,14]hexacosa-3,5,7(26),10,13,21(25),22-heptaene-8,15,24-trione], the IC50 in test [1] is over 5000 nM; in test [2] it was under 100 nM.

In the case of `O=C1Nc2cn(C3CCOCC3)nc2C(=O)NCC(O)COc2ccc(=O)n(n2)Cc2cccc1c2` (stereo not drawn) [Compound 11, 18-hydroxy-12-(oxan-4-yl)-20-oxa-1,9,12,13,16,25-hexaazatetracyclo[19.3.1.1^3,7.0^10,14]hexacoa-3,5,7(26),10,13,21(25),22-heptaene-8,15,24-trione], the IC50 in test [1] was 100 to 1000 nM; in test [2], under 100 nM.

With `Cn1cc2c(n1)C(=O)NCC(O)COc1ccc(=O)n(n1)Cc1cccc(c1)C(=O)N2` (stereo not drawn) [Compound 12, 18-hydroxy-12-methyl-20-oxa-1,9,12,13,16,25-hexaazatetracyclo[19.3.1.1^3,7.0^10,14]hexacosa-3,5,7(26),10,13,21(25),22-heptaene-8,15,24-trione], the figures for the half-inhibitory concentration (IC50) in test [1] and in test [2] were 1000 to 5000 nM and under 100 nM, respectively.

For the molecule `Cn1cc2c(n1)C(=O)NCCCOc1ccc(=O)n(n1)Cc1cccc(n1)C(=O)N2` [Compound 8, 12-methyl-20-oxa-1,9,12,13,16,25,26-heptaazatetracyclo[19.3.1.1^3,70^10,14]hexacosa-3,5,7(26),10,13,21(25),22-heptaene-8,15,24-trione], the concentration for half-maximal inhibition (IC50) in test [1] is over 5000 nM; in test [2] it was under 100 nM. In the same order, the values of `Cn1cc2c(n1)C(=O)NCc1cncc(c1)-c1ccc(=O)n(n1)Cc1cccc(c1)C(=O)N2` [Compound 3, 17-methyl-6,14,17,18,21,25,29-heptaazapentacyclo[21.3.1.1^2,61^8,12.0^15,19]nonacosa-1(27),2(29), 3,8,10,12(28),15,18,23,25-decaene-5,13,20-trione] are 100 to 1000 nM and under 100 nM. For `Cn1cc2c(n1)C(=O)NCc1cc(ccn1)-c1ccc(=O)n(n1)Cc1cccc(c1)C(=O)N2` [Compound 13, 17-methyl-6,14,17,18,21,24,29-heptaazapentacyclo[21.3.1.1^2,6.1^8,12.0^15,19]nonacosa-1(27),2(29),3,8,10,12(28),15,18,23,25-decaene-5,13,20-trione], the half-inhibitory concentration (IC50) was 100 to 1000 nM in test [1] and under 100 nM in test [2]. In the same order, the values of `Cn1cc2c(n1)C(=O)NCCn1cc(cn1)-c1ccc(=O)n(n1)Cc1cccc(c1)C(=O)N2` [Compound 2, 12-methyl-4,5,8,11,12,15,23,27-octaazapentacyclo[21.3.1.1^2,5.1^17,210^10,14]nonacosa-1(27),2(29) 3,10,13,17(28),18,20,25-nonaene-9,16,24-trione] are under 100 nM and under 100 nM.

The record behind these values is patent US9624246B2, “Pyridazinone macrocycles as IRAK inhibitors and uses thereof” (Merck Patent GmbH, priority 2015, dated 2017).
